For data set [1], the target named is T1, 5-HT3 receptor (Cavia porcellus, UniProt O70212).
T1 construct: Distal colons were excised from male Hartley guinea pigs; from tissue; host or cells: distal colon strips of male Hartley guinea pigs
T1 sequence (O70212 20-490): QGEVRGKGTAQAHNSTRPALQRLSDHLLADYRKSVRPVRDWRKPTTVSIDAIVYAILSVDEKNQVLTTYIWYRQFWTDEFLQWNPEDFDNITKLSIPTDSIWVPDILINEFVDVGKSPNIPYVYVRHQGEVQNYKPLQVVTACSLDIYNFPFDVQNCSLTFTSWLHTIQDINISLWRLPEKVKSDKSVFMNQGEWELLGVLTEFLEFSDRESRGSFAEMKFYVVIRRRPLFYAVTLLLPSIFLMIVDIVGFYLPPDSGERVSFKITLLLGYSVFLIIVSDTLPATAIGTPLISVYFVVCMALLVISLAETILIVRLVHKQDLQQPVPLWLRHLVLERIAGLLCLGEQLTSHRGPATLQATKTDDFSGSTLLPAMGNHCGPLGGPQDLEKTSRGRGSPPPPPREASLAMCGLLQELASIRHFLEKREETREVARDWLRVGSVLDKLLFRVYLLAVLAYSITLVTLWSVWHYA
Nature of the data set: 5-HT3 receptor agonistic activity: contractile response of isolated guinea pig distal colon strips. It counts as cell-based. The following applies: read-out: Max. response. From the text:
Distal colons were excised from male Hartley guinea pigs (500 to 800 g) to prepare strips of about 20 mm.
Each strip was longitudinally suspended in a Magnus tube, and contractile response was isometrically measured.

For another data set, the system named is ICR male mice. Briefly: Toxicity after i.v. administration to ICR male mice. The format is in vivo. As to conditions: 100 mg/kg i.v., 8 to 9 weeks of age, n=5 to 6. The text has this: Being low in toxicity, the compounds of the present invention are suitable for use as medicines.
Data set [2] deals with 5-HT3 receptor. Briefly: Receptor binding experiment.

The values below come from US5565479A, “Condensed thiazole derivative, production process thereof and pharmaceutical composition thereof” (Yamanouchi Pharmaceutical Co., Ltd., priority 1992, dated 1996).

Where a name gives a salt, the structure may show the parent alone.

Consider `Cn1cncc1Cc1nc2c(s1)Cc1ccccc1-2` [Example 15, 2-[(1-Methyl-5-imidazolyl)methyl]-8H-indeno[1,2-d]thiazole], for which the Emax on 5-HT3 receptor [1] was determined as 42.6%.
Regarding `c1ccc2c(c1)CCCc1sc(Cc3c[nH]cn3)nc1-2` [Example 4, 2-(4-Imidazolylmethyl)-5,6-dihydro-4H-benzo[6,7]-cyclohepto[1,2-d]thiazole fumarate], the Emax on 5-HT3 receptor [1] came to 50%.
Regarding `c1ccc2c(c1)Cc1sc(Cn3ccnc3)nc1-2` [Example 10, 2-(1-Imidazolylmethyl)-8H-indeno[1,2-d]thiazole fumarate], the Emax at 5-HT3 receptor [1] came to 60.9%.
As to `O=C(O)/C=C/C(=O)O.c1ccc2c(c1)CCc1sc(Cc3c[nH]cn3)nc1-2` [Example 3, 2-(4-Imidazolylmethyl)-4,5-dihydronaphtho[1,2-d]thiazole fumarate], in the data set on ICR male mice, the side effects entry is “do not cause serious grave side effects”. The Emax at 5-HT3 receptor [1] came out at 80.3%.
Consider `c1ccc2c(c1)Cc1sc(Cc3c[nH]cn3)nc1-2` [Example 1, 2-(4-imidazolylmethyl)-8H-indeno[1,2-d]thiazole], for which the side effects entry in the data set on ICR male mice was “do not cause serious grave side effects”. The Emax at 5-HT3 receptor [1] amounted to 89.9%. In addition, in the data set on 5-HT3 receptor [2], the “affinity for the 5-HT3 receptor” value is recorded as “high affinity”.
Take `c1ccc2c(c1)ccc1sc(Cn3ccnc3)nc12` [Example 30, 2-(1-imidazolylmethyl)naphtho[1,2-d]thiazole]: the Emax at 5-HT3 receptor [1] was 78.2%.
